Data on 15 molecules can be found in patent publication US12227520B2 (priority 2019, dated 2025).

Where two headings read alike, the source gives them in different places.

One data set deals with pLai RLuc reporter virus. Kind of data set: microbe, parasite or virus in culture. In kind it is cell-based, HIV. The conditions noted are these: Human immunodeficiency virus 1, 72 h. Summed up:
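MT-4 cells pre-infected 2 h at 37 °C with pLai RLuc virus, then exposed to 1:3 serial dilutions of compound in RPMI/10% FBS with or without 50% human serum for 72 h at 37 °C. Renilla luminescence read-out; serum shift = EC50(HS/CCM)/EC50(CCM).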

Another data set has as its system HIV-1 (IIIB). In words: Antiviral assay in MT-4 cells (HIV MT-4 antiviral assay). In kind it is cell-based. The conditions noted are these: Human immunodeficiency virus 1, IIIB, MT4, 120 h, HIV-1 (IIIB) in MT-4 cells, 5 days incubation; read-out: EC50. In a few lines: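 MT-4 cells infected with HIV-1 IIIB (1:250 diluted stock) and exposed to 1:3 serially diluted compound in RPMI with 10% FBS. Viability read by CellTiter-Glo luminescence after 5 days at 37° C; mock-infected cells and 5 μM AZT as controls.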

The nature of data set [1]: Cytotoxicity assay in MT-4 cells. The class given is cell-based, human. Particulars: human, uninfected MT-4 cells, 5 days incubation; read-out: CC50. In a few lines:
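Infected MT-4 cells (HIV-1 IIIB, fresh 1:250 dilution of concentrated stock) or mock-infected cells exposed to compounds for 5 days at 37 °C. Viability by CellTiter-Glo luminescence; 5 μM AZT positive control, no-drug negative control. Uninfected cells used for cytotoxicity, with 10 μM puromycin as base-level cytotoxicity control.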

Setting [2] is: read-out: Antiviral Serum Shift RLuc 50% HS, HS/CCM (RPMI media, 10% FBS, 50% HS, 1% P/S), 72-h incubation.
Where [3] appears, read: read-out: Antiviral Serum Shift RLuc CCM, CCM (RPMI media, 10% FBS, 1% P/S), 72-h incubation.

A word on the CC50: it is the concentration giving 50% cytotoxicity. Take `O=C(NCc1ccc(F)c(F)c1F)c1cn2c(c(O)c1=O)C(=O)N1CCCC[C@H]2C1` [Example 161, (7S)-12-hydroxy-1,11-dioxo-N-(2,3,4-trifluorobenzyl)-1,4,5,6,7,11-hexahydro-3H-2,7-methanopyrido[1,2-a][1,4]diazonine-10-carboxamide]: the EC50 is 1.01 nM in the data set on pLai RLuc reporter virus (setting [2]), 0.3 nM with pLai RLuc reporter virus (setting [3]) and 2.1 nM in the data set with HIV-1 (IIIB). In data set [1], the CC50 at 5 days came to 4.63 µM.

As for `O=C(NCc1ccc(F)cc1F)c1cn2c(c(O)c1=O)C(=O)N1CCCC[C@@]2(CF)C1` [Example 162-1, (7S)—N-(2,4-difluorobenzyl)-7-(fluoromethyl)-12-hydroxy-1,11-dioxo-1,4,5,6,7,11-hexahydro-3H-2,7-methanopyrido[1,2-a][1,4]diazonine-10-carboxamide], the EC50 with pLai RLuc reporter virus (setting [2]) amounted to 11.9 nM; with pLai RLuc reporter virus (setting [3]) it was 0.067 nM; in the data set on HIV-1 (IIIB) it was 1.14 nM. The CC50 at 5 days in data set [1] is 16.2 µM.

As to `O=C(NCc1ccc(F)cc1F)c1cn2c(c(O)c1=O)C(=O)N1CCCC[C@]2(CF)C1` [Example 162-2, (7R)—N-(2,4-difluorobenzyl)-7-(fluoromethyl)-12-hydroxy-1,11-dioxo-1,4,5,6,7,11-hexahydro-3H-2,7-methanopyrido[1,2-a][1,4]diazonine-10-carboxamide], the EC50 came out at 15.3 nM in the data set on pLai RLuc reporter virus (setting [2]), 0.118 nM in the data set with pLai RLuc reporter virus (setting [3]) and 2.58 nM with HIV-1 (IIIB). In addition, the CC50 at 5 days in data set [1] stood at 14.4 µM.

For the molecule `O=C(NCc1c(F)cc(F)cc1F)c1cn2c(c(O)c1=O)C(=O)N1CCCC[C@@]2(CF)C1` [Example 163-1, (7S)—N-(2,4,6-trifluorobenzyl)-7-(fluoromethyl)-12-hydroxy-1,11-dioxo-1,4,5,6,7,11-hexahydro-3H-2,7-methanopyrido[1,2-a][1,4]diazonine-10-carboxamide], the EC50 was 11.9 nM in the data set on pLai RLuc reporter virus (setting [2]), 0.0674 nM with pLai RLuc reporter virus (setting [3]) and 1.26 nM in the data set with HIV-1 (IIIB). In addition, the CC50 at 5 days in data set [1] was found to be 20.2 µM.

As to `O=C(NCc1c(F)cc(F)cc1F)c1cn2c(c(O)c1=O)C(=O)N1CCCC[C@]2(CF)C1` [Example 163-2, (7R)—N-(2,4,6-trifluorobenzyl)-7-(fluoromethyl)-12-hydroxy-1,11-dioxo-1,4,5,6,7,11-hexahydro-3H-2,7-methanopyrido[1,2-a][1,4]diazonine-10-carboxamide], the EC50 with pLai RLuc reporter virus (setting [2]) amounted to 15.3 nM; in the data set on pLai RLuc reporter virus (setting [3]) it was 0.118 nM; with HIV-1 (IIIB) it was 2.29 nM. Also, in data set [1], the CC50 at 5 days is 13.8 µM.

In the case of `O=C(NCc1c(F)cc(F)cc1F)c1cn2c(c(O)c1=O)C(=O)N1C[C@@H]2CCC[C@@H]1CF` [Example 164, (3R,7S)-3-(fluoromethyl)-12-hydroxy-1,11-dioxo-N-(2,4,6-trifluorobenzyl)-1,4,5,6,7,11-hexahydro-3H-2,7-methanopyrido[1,2-a][1,4]diazonine-10-carboxamide], the EC50 with pLai RLuc reporter virus (setting [2]) came to 13.3 nM; in the data set on pLai RLuc reporter virus (setting [3]), 0.333 nM; with HIV-1 (IIIB), 1.21 nM. Also, the CC50 at 5 days in data set [1] was determined as 10.4 µM.

For the molecule `O=C(NCc1ccc(F)cc1F)c1cn2c(c(O)c1=O)C(=O)N1C[C@@H]2CCC[C@@H]1CF` [Example 165, (3R,7S)—N-(2,4-difluorobenzyl)-3-(fluoromethyl)-12-hydroxy-1,11-dioxo-1,4,5,6,7,11-hexahydro-3H-2,7-methanopyrido[1,2-a][1,4]diazonine-10-carboxamide], the figures for the EC50 in the data set with pLai RLuc reporter virus (setting [2]), in the data set with pLai RLuc reporter virus (setting [3]) and in the data set with HIV-1 (IIIB) were 7.33 nM, 0.351 nM and 1.1 nM, respectively. In addition, in data set [1], the CC50 at 5 days was found to be 9.61 µM.

`O=C(NCc1ccc(F)cc1)c1cn2c(c(O)c1=O)C(=O)N1CCCC[C@H]2C1` [Example 166, (7S)—N-(4-fluorobenzyl)-12-hydroxy-1,11-dioxo-1,4,5,6,7,11-hexahydro-3H-2,7-methanopyrido[1,2-a][1,4]diazonine-10-carboxamide]: the EC50 with pLai RLuc reporter virus (setting [2]) is 1.62 nM; in the data set on pLai RLuc reporter virus (setting [3]), 0.583 nM; in the data set on HIV-1 (IIIB) it was 2.5 nM. In data set [1], the CC50 at 5 days was 15.6 µM.

As to `C[C@]12CC=CCN(C1)C(=O)c1c(O)c(=O)c(C(=O)NCc3ccc(F)cc3F)cn12` [Example 168, (7S)—N-(2,4-difluorobenzyl)-12-hydroxy-7-methyl-1,11-dioxo-1,6,7,11-tetrahydro-3H-2,7-methanopyrido[1,2-a][1,4]diazonine-10-carboxamide], the EC50 with pLai RLuc reporter virus (setting [2]) was determined as 41.3 nM; in the data set with pLai RLuc reporter virus (setting [3]), 0.187 nM; in the data set on HIV-1 (IIIB) it was 1.75 nM. In data set [1], the CC50 at 5 days came to 13.7 µM.

`O=C(NCc1ccc(F)cc1F)c1cn2c(c(O)c1=O)C(=O)N1CCC=C[C@H]2C1` [Example 169, (7S)—N-(2,4-difluorobenzyl)-12-hydroxy-1,11-dioxo-1,4,7,11-tetrahydro-3H-2,7-methanopyrido[1,2-a][1,4]diazonine-10-carboxamide]: the EC50 in the data set on pLai RLuc reporter virus (setting [2]) stood at 2.89 nM; with pLai RLuc reporter virus (setting [3]), 0.322 nM; in the data set with HIV-1 (IIIB) it was 1.4 nM. Further, in data set [1], the CC50 at 5 days is 11.8 µM.

Turning to `O=C(NCc1ccc(F)c(Cl)c1F)c1cn2c(c(O)c1=O)C(=O)N1CCC=C[C@H]2C1` [Example 171, (7S)—N-(3-chloro-2,4-difluorobenzyl)-12-hydroxy-1,11-dioxo-1,4,7,11-tetrahydro-3H-2,7-methanopyrido[1,2-a][1,4]diazonine-10-carboxamide], the EC50 with pLai RLuc reporter virus (setting [2]) was 8.5 nM; in the data set with pLai RLuc reporter virus (setting [3]) it was 0.387 nM; in the data set with HIV-1 (IIIB), 0.962 nM. The CC50 at 5 days in data set [1] stood at 4.19 µM.

Regarding `O=C(NCc1ccc(F)cc1F)c1cn2c(c(O)c1=O)C(=O)N1CCC[C@@H](F)[C@@H]2C1` [Example 172-1, (6R,7S)—N-(2,4-difluorobenzyl)-6-fluoro-12-hydroxy-1,11-dioxo-1,4,5,6,7,11-hexahydro-3H-2,7-methanopyrido[1,2-a][1,4]diazonine-10-carboxamide], the EC50 with pLai RLuc reporter virus (setting [2]) was found to be 42.7 nM; with pLai RLuc reporter virus (setting [3]), 0.689 nM; in the data set with HIV-1 (IIIB) it was 2.4 nM. The CC50 at 5 days in data set [1] worked out at 15.6 µM.

As for `O=C(NCc1ccc(F)cc1F)c1cn2c(c(O)c1=O)C(=O)N1CCCC(F)[C@H]2C1` (stereo partly drawn) [Example 172-2, (7R)—N-(2,4-difluorobenzyl)-6-fluoro-12-hydroxy-1,11-dioxo-1,4,5,6,7,11-hexahydro-3H-2,7-methanopyrido[1,2-a][1,4]diazonine-10-carboxamide], the EC50 was found to be 2.62 nM in the data set on pLai RLuc reporter virus (setting [2]), 0.417 nM in the data set on pLai RLuc reporter virus (setting [3]) and 1.47 nM in the data set on HIV-1 (IIIB). The CC50 at 5 days in data set [1] worked out at 12.8 µM.

For the molecule `C[C@]12CCCCN(C1)C(=O)c1c(O)c(=O)c(C(=O)NCc3ccc(F)cc3F)cn12` [Example 173, (7S)—N-(2,4-difluorobenzyl)-12-hydroxy-7-methyl-1,11-dioxo-1,4,5,6,7,11-hexahydro-3H-2,7-methanopyrido[1,2-a][1,4]diazonine-10-carboxamide], the EC50 in the data set with pLai RLuc reporter virus (setting [2]) was 13.9 nM; with pLai RLuc reporter virus (setting [3]), 0.363 nM; with HIV-1 (IIIB) it was 1.24 nM. In addition, the CC50 at 5 days in data set [1] was determined as 12.5 µM.

`C[C@@H]1CC[C@H](C)N2C[C@H]1n1cc(C(=O)NCc3c(F)cc(F)cc3F)c(=O)c(O)c1C2=O` [Example 174, (3S,6R,7S)-12-hydroxy-3,6-dimethyl-1,11-dioxo-N-(2,4,6-trifluorobenzyl)-1,4,5,6,7,11-hexahydro-3H-2,7-methanopyrido[1,2-a][1,4]diazonine-10-carboxamide]: the EC50 worked out at 58.4 nM with pLai RLuc reporter virus (setting [2]), 0.346 nM in the data set with pLai RLuc reporter virus (setting [3]) and 1.26 nM in the data set on HIV-1 (IIIB). The CC50 at 5 days in data set [1] was 11.4 µM.
